According to patent US12384774B2, “Polymorph of CDK9 inhibitor and preparation method for polymorph and use thereof” (GenFleet Therapeutics (Shanghai) Inc., priority 2019, dated 2025):
In brackets after ≈: the same amount, converted by molar mass. Where a name gives a salt, the structure may show the parent alone. Read-outs that look alike come from different tables or passages of the source.

Experiments:
[1] = Stability test in a 60° C. drying oven (impurity, content, XRPD); type: physicochemical; conditions: for Content % / Total impurity %: 60° C. drying oven, 21 days; for change in content or in the characteristic peaks of the XRPD pattern: after 21 days at high temperature (60° C.)
[2] = Solubility test in PBS buffers of different pH, water and normal saline at room temperature; type: physicochemical; conditions: for solubility: thermodynamic from solid
Method: Weigh about 50 mg of the crystal form 1 of the maleate of the compound of formula (I) prepared in Example 2, which was added into different bottles. Then PBS buffers with different pH values were prepared. Each of them was added in batches with a small amount into each of the above bottles at room temperature till the crystal form in each bottle was just dissolved. The total amount of the solvent was recorded and the solubility was calculated.
The amorphous form of the free base of the compound of formula (I) was subjected to the same solubility study as above-mentioned.

[3] = Hygroscopicity test by dynamic moisture adsorption instrument (DVS); type: physicochemical; conditions: for weight increasement due to moisture absorption: 25° C.
Method: Experimental method: this test was carried out by a dynamic moisture adsorption instrument. Weigh 10 mg of a solid sample, which was placed on a balance. The humidity in the sample room was controlled through the program. The sample was placed under the same temperature and different humidity conditions for 7 days, then the quality change of the tested sample was measured with relative humidity. Detection procedure: the humidity change was 0%-95%-0%; the test temperature was 25° C.
The amorphous form of the free base of the compound of formula (I) was subjected to the same hygroscopicity study as above-mentioned. […] When the relative humidity is 95%, the weight increasement due to moisture absorption can reach 9.5%, and the sample after moisture absorption is not easy to desorb.

[4] = Stability test in a 60° C. drying oven (impurity, content, XRPD); type: physicochemical; conditions: for Content % / Total impurity %: 60° C. drying oven
Method: The crystal form A of the fumarate of the compound of formula (I) prepared in Example 9 and the crystal form 1 of the maleate of the compound of formula (I) prepared in Example 2 were placed in a 60° C. drying oven for different days (0 days, 7 days, 21 days). Samples were collected and detected to investigate the stability of the crystal forms.
The amorphous form of the free base of the compound of formula (I) was subjected to the same stability study as above-mentioned.
The crystal form 2 of the maleate of the compound of formula (I) prepared in Example 3 was placed in a 60° C. drying oven, and samples were taken and tested for different days (0 days, 7 days, 14 days and 30 days) to investigate the stability of the crystal form.

[5] = system: Acute myeloid leukemia cells MV-4-11; experiment: Cell proliferation inhibition, CellTiter-Glo; type: cell-based; conditions: MV-4-11 cells
Method: Weigh 5.61 mg of the crystal form 1 of the maleate of the compound of formula (I) prepared in Example 2, which was dissolved it in 74.7 μL of DMSO.
Configure 1000× compound storage plate (or called 1000× storage medicine plate): the 100 mM compound storage solution was diluted with DMSO. The starting concentration was 10 mM and 9 concentration gradients (th concentration of the storage solution was 10 mM, 3 mM, 1 mM, 0.3 mM, 0.1 mM, 0.03 mM, 0.01 mM, 0.001 mM and 0.0001 mM respectively) were set. The compound storage plate was sealed with a sealing tape, and stored in a refrigerator at −20° C. for later use.
Acute myeloid leukemia cells MV-4-11 (purchased from ATCC) were selected and seaded into a 96-well plate (140 μL per well) at a density of 5000/well and cultured overnight in a incubator with 37° C., 5% CO2.
1000×storage medicine plates were taken out and melt at room temperature while avoiding light. Then prepare 15× intermediate medicine plates (78.8 μL of medium and 1.2 μL of medicine-containing DMSO storage solution), which were mixed well. 10 μL of the medicine-contained medium (15×) was added into the 96-well cell plates (the final concentration was 10 μM, 3 μM, 1 μM, 0.3 μM, 0.1 μM, 0.03 μM, 0.01 μM, 0.001 μM and 0.0001 μM, respectively, and the final concentration of DMSO was […]), which were gently patted to well-mixed, then put it in a incubator with 37° C., 5% CO2, and continued to incubate for 24 hours.
Then the CellTiter-Glo method was used to detect vitality of the cell under the conditions of each drug concentration, and the rate of cell proliferation inhibition under the corresponding conditions was calculated.

[6] = Hygroscopicity observation on the hydrochloride (Comparative Example 2); type: physicochemical; conditions: solid in crystal form obtained with hydrochloric acid
Method: Similarly, by using the method described in Example 1 or Example 9, the according salt of the compound of formula (I) were prepared with the hydrochloric acid instead of the maleic acid or the fumaric acid.

[7] = amorphous form, 60° C., 7th and 14th day

With `COC[C@@H](C)N[C@H]1CC[C@H](Nc2cc(-c3csc(NCC4(C#N)CCOCC4)n3)c(Cl)cn2)CC1` [free base of the compound of formula (I), 4-(((4-(5-chloro-2-(((1R,4r)-4-(((R)-1-methoxypropyl-2-yl)amino)cyclohexyl)amino)pyridin-4-yl)thiazol-2-yl)amino)methyl)tetrahydro-2H-pyran-4-carbonitrile] the “stability (in words)” value [1, 7] was “poor stability”, the solubility ([2]; PBS buffer, pH 7.2, aqueous buffer, PBS pH 7.2, room temperature, read-out: Solubility (S, mg/mL)) was about 10.1 mg/mL and the “Solubility (S, mg/mL)” value ([2]; PBS pH 6.5, room temperature) was “about 15.10 mg/mL”. The “Solubility (S, mg/mL)” value ([2]; PBS pH 7.0, room temperature) was “about 12.5 mg/mL”, the “Solubility (S, mg/mL)” value ([2]; PBS pH 7.5, room temperature) was “about 0.44 mg/mL” and the “solubility compared with crystal form 1 of the maleate (in words)” value ([2]; same experiment conditions, amorphous free base) was “significant lower solubility”. For the same molecule, the “Solubility (S, mg/mL)” value ([2]; water, room temperature) was “about 0.1 mg/mL”, the “hygroscopicity (in words)” value ([3]; environment humidity higher than 60%, amorphous form) was “quite strong hygroscopicity” and the “weight increasement due to moisture absorption” value (“weight increasement due” below) ([3]; relative humidity 95%) was 9.5%. The Content % ([4]; 0 day) was 99.50%, the Total impurity % ([4]; 0 day) was 0.50% and the Content % ([4]; 7 days) was 98.42%. For the same molecule, the Total impurity % ([4]; 7 days) was 1.58%, the Content % ([4]; 14 days) was 97.44% and the Total impurity % ([4]; 14 days) was 2.56%. The “change in the character (appearance)” value [4, 7] was “changes from a yellow solid to a hard gelatinous substance”.
With `COC[C@@H](C)N[C@H]1CC[C@H](Nc2cc(-c3csc(NCC4(C#N)CCOCC4)n3)c(Cl)cn2)CC1` [crystal form A of the fumarate of the compound of formula (I] the Content % [1] was 99.22%, the Total impurity % [1] was 0.78% and the “change in content or in the characteristic peaks of the XRPD pattern” value [1] was “basically no change”. For the same molecule, the “hygroscopicity (in words)” value ([3]; environment humidity RH=60%) was “weak”, the “weight increasement due” value ([3]; environment humidity RH=60%) was “about 1%” and the Content % ([4]; 0 day) was 99.38%. For the same molecule, the Total impurity % ([4]; 0 day) was 0.62%, the Content % ([4]; 7 days) was 99.31% and the Total impurity % ([4]; 7 days) was 0.69%.
With `COC[C@@H](C)N[C@H]1CC[C@H](Nc2cc(-c3csc(NCC4(C#N)CCOCC4)n3)c(Cl)cn2)CC1` [crystal form 2] the “characteristic peaks of the XRPD pattern” value ([1]; after 14 days at high temperature (60° C.)) was “basically unchanged”, the Content % ([4]; 0 day) was 99.13% and the Total impurity % ([4]; 0 day) was 0.87%. For the same molecule, the Content % ([4]; 7 days) was 98.56%, the Total impurity % ([4]; 7 days) was 1.44% and the Content % ([4]; 14 days) was 97.73%. The Total impurity % ([4]; 14 days) was 2.27%.
With `COC[C@@H](C)N[C@H]1CC[C@H](Nc2cc(-c3csc(NCC4(C#N)CCOCC4)n3)c(Cl)cn2)CC1` [crystal form 1 of the maleate of the compound of formula (I)] the Content % [1] was 99.86%, the Total impurity % [1] was 0.14% and the “change in content or in the characteristic peaks of the XRPD pattern” value [1] was “basically no change”. The “Solubility (S, mg/mL)” value ([2]; PBS pH 6.5, room temperature) was 45 mg/mL, the “Solubility (S, mg/mL)” value ([2]; PBS pH 7.0, room temperature) was 57 mg/mL and the “Solubility (S, mg/mL)” value ([2]; PBS pH 7.5, room temperature) was 62 mg/mL. For the same molecule, the “Solubility (S, mg/mL)” value ([2]; water, room temperature) was 31 mg/mL, the “hygroscopicity (in words)” value ([3]; environment humidity RH=60%) was “weak” and the “weight increasement due” value ([3]; environment humidity RH=60%) was “about 1%”. The “effect on cell growth” value ([5]; concentration range 0.0001 μM to 0.01 μM) was “no significant changes in cell growth”, the “effect on cell growth” value ([5]; concentration range 0.03 μM to 10 μM) was “significant inhibitory effect” and the Content % ([4]; 0 day) was 99.91%. It also gave a Total impurity % ([4]; 0 day) of 0.09%, a Content % ([4]; 7 days) of 99.88% and a Total impurity % ([4]; 7 days) of 0.12%.
With `COC[C@@H](C)N[C@H]1CC[C@H](Nc2cc(-c3csc(NCC4(C#N)CCOCC4)n3)c(Cl)cn2)CC1` [listing 1 of 2 here] the solubility ([2]; PBS buffer, pH 6, aqueous buffer, PBS 6.0, room temperature, read-out: Solubility (S, mg/mL)) was 41 mg/mL (≈ 79 mM), the solubility ([2]; PBS buffers of different pH, water and normal saline, aqueous buffer, PBS 6.0-7.5, water, normal saline, read-out: solubility in each of the above-mentioned solvents (summary)) was 30 to 60 mg/mL (≈ 57.8 to 116 mM) and the solubility ([2]; normal saline, saline or isotonic, normal saline, room temperature, read-out: Solubility (S, mg/mL)) was 50 mg/mL (≈ 96.3 mM). It also gave an IC50 ([5]; Homo sapiens, MV4-11, 24 hours incubation, CellTiter-Glo, read-out: absolute half inhibitory concentration (ABsIC50)) of 0.032 µM.
For `COC[C@@H](C)N[C@H]1CC[C@H](Nc2cc(-c3csc(NCC4(C#N)CCOCC4)n3)c(Cl)cn2)CC1` [listing 2 of 2 here], the “hygroscopicity (in words)” value [6] was “very hygroscopic”.
